The source of these data is patent US20190160049A1, “2-OXO-1,2-DIHYDROPYRIDINE-3-CARBOXAMIDE COMPOUNDS AND THEIR USE AS DUAL INHIBITORS OF PDK1/AURA” (INTERNATIONAL SOCIETY FOR DRUG DEVELOPMENT S.R.L., priority 2016, published 2019).

One assay has as its target T1, PDK1 (Homo sapiens, UniProt O15530).
T1 construct: purchased Invitrogen Corporation, Life Technologies
T1 sequence (O15530 1-556): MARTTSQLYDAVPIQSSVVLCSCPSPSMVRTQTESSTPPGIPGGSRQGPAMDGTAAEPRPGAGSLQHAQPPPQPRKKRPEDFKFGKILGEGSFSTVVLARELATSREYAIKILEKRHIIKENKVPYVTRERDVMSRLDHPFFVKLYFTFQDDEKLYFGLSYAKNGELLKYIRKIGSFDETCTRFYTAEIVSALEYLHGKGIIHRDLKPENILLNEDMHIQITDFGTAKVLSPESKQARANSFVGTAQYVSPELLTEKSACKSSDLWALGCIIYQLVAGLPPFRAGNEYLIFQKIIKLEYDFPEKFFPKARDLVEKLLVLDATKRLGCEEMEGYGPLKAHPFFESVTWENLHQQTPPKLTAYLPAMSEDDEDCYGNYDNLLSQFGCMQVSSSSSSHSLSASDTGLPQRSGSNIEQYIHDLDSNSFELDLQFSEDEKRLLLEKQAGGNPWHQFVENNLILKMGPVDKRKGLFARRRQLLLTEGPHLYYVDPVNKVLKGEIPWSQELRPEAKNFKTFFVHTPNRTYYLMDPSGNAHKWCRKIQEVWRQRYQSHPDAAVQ
In words: FRET-based Z'-LYTE kinase assay against PDK1. It counts as biochemical. As for the experimental part:
(§1) The compounds of Formula (I) were tested in the biological test named Kinase-specific Z′-LYTE® assay (Invitrogen Corporation, Life Technologies).

The next assay concerns the target T2, AurA (Homo sapiens, UniProt O14965).
T2 construct: purchased Invitrogen Corporation, Life Technologies
T2 sequence (O14965 1-403): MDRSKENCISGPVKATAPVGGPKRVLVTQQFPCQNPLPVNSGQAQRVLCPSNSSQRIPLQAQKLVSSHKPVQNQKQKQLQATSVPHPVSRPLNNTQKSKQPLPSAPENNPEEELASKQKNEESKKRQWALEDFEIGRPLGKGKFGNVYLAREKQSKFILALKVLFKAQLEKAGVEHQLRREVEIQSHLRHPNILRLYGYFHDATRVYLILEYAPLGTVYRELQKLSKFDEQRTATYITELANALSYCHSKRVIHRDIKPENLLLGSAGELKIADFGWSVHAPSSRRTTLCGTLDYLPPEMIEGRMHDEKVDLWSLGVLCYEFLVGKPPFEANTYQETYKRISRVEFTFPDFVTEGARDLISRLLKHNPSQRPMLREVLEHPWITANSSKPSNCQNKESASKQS
Description: FRET-based Z'-LYTE kinase assay against AurA. The assay is classed as biochemical. Conditions: for IC50 / inhibition at 10 µM: Z'-LYTE assay; for inhibition at 10 µM: 10μM compound. As for the experimental part: as §1

The test system of the next assay is U87MG cells. Description: U87MG cell proliferation, MTS assay. It counts as cell-based. The settings on record: 72 h, 1 nM-10 μM. As for the experimental part:
FIG. 1 illustrates the effects of SA16 on U87MG cell proliferation of example 3 (a). U87MG cells were treated in complete medium with different concentrations of SA16 (1 nM-100 μM) for 72 h. At the end of treatment, cell proliferation was measured using the MTS assay. The data are expressed as a percentage with respect to that of untreated cells (control), which was set to 100%, and are the mean values±SEM of three independent experiments, each performed in duplicate. The significance of the differences was determined with a one-way ANOVA with Bonferroni post-test: * p<0.05, ** p<0.01, *** p<0.001 vs. control cells;
FIG. 2 illustrates the combined inhibition of PDK1 and Aurora A on U87MG cell proliferation of example 3a. U87MG cells were treated in complete medium with different concentrations of MP7, in the presence or absence of Alisertib, for 72 h. At the end of treatment, cell proliferation was measured using the MTS assay. The data are expressed as a percentage with respect to that of untreated cells (control), which was set to 100%, and are the mean values±SEM of three independent experiments, each performed in duplicate. The significance of the differences was determined with a one-way ANOVA with Bonferroni post-test: * p<0.05, *** p<0.001 vs. control cells; ## p<0.01, ### p<0.001 vs. cells treated with MP7 alone; §§ p<0.01, § § § p<0.001 vs. cells treated with Alisertib alone;
To examine the effects of SA16 on U87MG cell growth/survival, U87MG cells were incubated with different concentrations of the compound SA16 (1 nM-10 μM) for 72 h.
In parallel experiments, U87MG proliferation was assessed in the presence of a well-known PDK1 inhibitor MP7, alone or in combination with the Aurora A inhibitor, Alisertib.
(Formazan colour is commonly taken as a measure of viable cells.)

Assay [1] relates to cancer stem cell (CSC) neurospheres obtained from U87MG cells. In words: CSC (GBM stem cell) proliferation, MTS assay. The assay is classed as cell-based. Conditions: seven days of treatment. As for the experimental part: FIG. 3 illustrates the effects of SA16 on CSC proliferation of example 3b. CSCs were treated in complete neurosphere medium with different concentrations of SA16 (1 nM-100 μM) for seven days. At the end of treatment, cell proliferation was measured using the MTS assay. The data are expressed as a percentage with respect to that of untreated cells (control), which was set to 100%, and are the mean values±SEM of three independent experiments, each performed in duplicate. IC50 value after seven days of treatment were calculated from sigmoid dose-response curve;
FIG. 4 illustrates combined inhibition of PDK1 and Aurora A on CSCs proliferation of example 3b. CSCs were treated in complete medium with different concentrations of MP7, in the presence or absence of Alisertib, for seven days. At the end of treatment, cell proliferation was measured using the MTS assay.
The data are expressed as a percentage with respect to that of untreated cells (control), which was set to 100%, and are the mean values±SEM of three independent experiments, each performed in duplicate. The significance of the differences was determined with a one-way ANOVA with Bonferroni post-test: * p<0.05, *** p<0.001 vs. control cells; ## p<0.01, ### p<0.001 vs. cells treated with MP7 alone; §§ p<0.01, § § § p<0.001 vs. cells treated with Alisertib alone;
The inventors also examined the effects of SA16 compound on cancer stem cell (CSC) neurospheres obtained from U87MG cells.

For orientation: inhibition means the percentage by which the read-out fell short of the control.

On to `Cc1ccc(C(=O)NCC(=O)Nc2ccc3c(c2)/C(=C/c2cnc[nH]2)C(=O)N3)c(=O)n1Cc1ccc(F)c(F)c1` [SST200, (Z)—N-(2-((3-((1H-imidazol-5-yl)methylene)-2-oxoindolin-5-yl)amino)-2-oxoethyl)-1-(3,4-difluorobenzyl)-6-methyl-2-oxo-1,2-dihydropyridine-3-carboxamide], for which the IC50 on PDK1 (Z'-LYTE assay) was found to be 103 nM; on AurA, 193 nM.
As to `O=C(CCCNC(=O)c1cccn(Cc2ccc(F)c(F)c2)c1=O)Nc1ccc2c(c1)/C(=C/c1cnc[nH]1)C(=O)N2` [DF8, (Z)—N-(4-((3-((1H-imidazol-5-yl)methylene)-2-oxoindolin-5-yl)amino)-4-oxobutyl)-1-(3,4-difluorobenzyl)-2-oxo-1,2-dihydropyridine-3-carboxamide], the “inhibition of PDK1 kinase (in words)” value on PDK1 is listed as “best effects”. At PDK1 (Z'-LYTE assay), the IC50 came out at 245 nM. Further, on AurA, the “inhibition of AurA kinase (in words)” value is reported as “best effects” and the IC50 came out at 611 nM.
On to `O=C(CNC(=O)c1cccn(Cc2ccc(F)c(F)c2)c1=O)Nc1ccc2c(c1)/C(=C/c1cnc[nH]1)C(=O)N2` [IB35, (Z)—N-(2-((3-((1H-imidazol-5-yl)methylene)-2-oxoindolin-5-yl)amino)-2-oxoethyl)-1-(3,4-difluorobenzyl)-2-oxo-1,2-dihydro pyridine-3-carboxamide], for which the IC50 against AurA came out at 289 nM.
Turning to `O=C(CNC(=O)c1cc2cccnc2n(Cc2ccc(F)c(F)c2)c1=O)Nc1ccc2c(c1)/C(=C/c1cnc[nH]1)C(=O)N2` [SST201, (Z)—N-(2-((3-((1H-imidazol-5-yl)methylene)-2-oxoindolin-5-yl)amino)-2-oxoethyl)-1-(3,4-difluorobenzyl)-2-oxo-1,2-dihydro-1,8-naphthyridine-3-carboxamide], the inhibition at 10 µM against PDK1 (10μM compound, Z'-LYTE assay) was 35%; at AurA it was 43%.
For the compound `Cc1c(Br)cc(C(=O)N[C@@H](C(=O)Nc2ccc3c(c2)/C(=C/c2cnc[nH]2)C(=O)N3)c2ccccc2)c(=O)n1Cc1ccc(F)c(F)c1` [Compound V118, (R,Z)—N-(2-((3-((1H-imidazol-5-yl)methylene)-2-oxoindolin-5-yl)amino)-2-oxo-1-phenylethyl)-5-bromo-1-(3,4-difluorobenzyl)-6-methyl-2-oxo-1,2-dihydropyridine-3-carboxamide], the IC50 against PDK1 (Z'-LYTE assay) is 475 nM; at AurA it was 118 nM.
As for `Cc1ccc(C(=O)N[C@@H](C(=O)Nc2ccc3c(c2)/C(=C/c2cnc[nH]2)C(=O)N3)c2ccccc2)c(=O)n1Cc1ccc(F)c(F)c1` [Compound V18, (R,Z)—N-(2-((3-((1H-imidazol-5-yl)methylene)-2-oxoindolin-5-yl)amino)-2-oxo-1-phenylethyl)-1-(3,4-difluorobenzyl)-6-methyl-2-oxo-1,2-dihydropyridine-3-carboxamide], the IC50 against PDK1 (Z'-LYTE assay) is 148 nM; against AurA, 69.8 nM.
`Cc1c(Br)cc(C(=O)NCC(=O)Nc2ccc3c(c2)/C(=C/c2cnc[nH]2)C(=O)N3)c(=O)n1Cc1ccc(F)c(F)c1` [Compound V123, (Z)—N-(2-((3-((1H-imidazol-5-yl)methylene)-2-oxoindolin-5-yl)amino)-2-oxoethyl)-5-bromo-1-(3,4-difluorobenzyl)-6-methyl-2-oxo-1,2-dihydropyridine-3-carboxamide] returned an IC50 at PDK1 (Z'-LYTE assay) of 134 nM. The inhibition at 10 µM against AurA was 52%.
On to `O=C1Nc2ccc(NC(=O)[C@H](NC(=O)c3cccn(Cc4ccc(F)c(F)c4)c3=O)c3ccccc3)cc2/C1=C/c1cnc[nH]1` [SA16, (Z)—(R)—N-(2-((3-((1H-imidazol-5-yl)methylene)-2-oxoindolin-5-yl)amino)-2-oxo-1-phenylethyl)-1-(3,4-difluorobenzyl)-2-oxo-1,2-dihydropyridine-3-carboxamide], for which the IC50 came to 35 nM against AurA and 8.33 ± 0.78 nM in assay [1] (Homo sapiens, U-87 MG, 168 h, read-out: IC50 of inhibition of GSC proliferation). Besides, the “maximal percentage of inhibition of U87MG cell proliferation” value in the assay with U87MG cells turned out to be 49.4±2%. For the same compound, in assay [1], the “maximal percentage of inhibition of GSC proliferation” value is recorded as 80.0±2.0%.
Regarding `O=C(CCNC(=O)c1cccn(Cc2ccc(F)c(F)c2)c1=O)Nc1ccc2c(c1)/C(=C/c1cnc[nH]1)C(=O)N2` [DD21, (Z)—N-(3-((3-((1H-imidazol-5-yl)methylene)-2-oxoindolin-5-yl)amino)-3-oxopropyl)-1-(3,4-difluorobenzyl)-2-oxo-1,2-dihydropyridine-3-carboxamide], the IC50 on PDK1 (Z'-LYTE assay) amounted to 103 nM; on AurA it was 2470 nM.
